Assay results from the NIST ThermoML archive (doi:10.1016/j.tca.2011.10.030).

Experiment: xn = mol fraction of the nth substance listed
Conditions: 101 kPa, Liquid; for viscosity: Capillary tube (Ostwald / Ubbelohde) method; for mass density: Vibrating tube method

CCCCCCn1cc[n+](C)c1.F[B-](F)(F)F [1-hexyl-3-methylimidazolium tetrafluoroborate] + CCCO
Conditions | mass density, 293.15 K [kg/m3] | mass density, 303.15 K [kg/m3] | mass density, 313.15 K [kg/m3] | mass density, 323.15 K [kg/m3] | mass density, 333.15 K [kg/m3] | viscosity, 293.15 K [mPa·s] | viscosity, 303.15 K [mPa·s] | viscosity, 313.15 K [mPa·s] | viscosity, 323.15 K [mPa·s] | viscosity, 333.15 K [mPa·s]
x1 = 0.1004 | – | – | – | – | – | – | – | 1.999 | – | –
x1 = 0.1006 | 895.6 | 887.71 | 879.74 | 871.67 | 863.47 | 3.744 | 2.705 | – | 1.502 | 1.123
x1 = 0.199 | 955.99 | 948.28 | 940.53 | 932.73 | 924.86 | 6.294 | 4.518 | 3.364 | 2.585 | 1.99
x1 = 0.3002 | 1001.98 | 994.41 | 986.83 | 979.23 | 971.61 | 10.08 | 7.158 | 5.324 | 4.056 | 3.14
x1 = 0.4993 | 1065.02 | 1057.71 | 1050.43 | 1043.18 | 1035.95 | 23.7 | 16.37 | 11.84 | 8.808 | 6.76
x1 = 0.6309 | 1094.51 | 1087.38 | 1080.27 | 1073.19 | 1066.15 | 41.96 | 27.85 | 19.44 | 14.25 | 10.74
x1 = 0.7571 | 1116.98 | 1110.01 | 1103.05 | 1096.1 | 1089.2 | 73.7 | 46.65 | 31.26 | 21.97 | 16.09
x1 = 0.8894 | 1135.92 | 1129.14 | 1122.32 | 1115.51 | 1108.71 | 139.42 | 82.45 | 52.28 | 35.15 | 24.67
x1 = 1 | 1149.24 | 1142.48 | 1135.79 | 1129.08 | 1122.37 | 232.65 | 130.02 | 78.24 | 50.3 | 34.02
